From patent US9783537B2, “3-(4-ethylnylphenyl) pyridopyrimidinone compounds and process for preparation thereof useful as potential anticancer agents” (Council of Scientific & Industrial Research, priority 2013, dated 2017)
Read-outs that look alike come from different tables or passages of the source.

What was measured:
CCRF-CEM = assay: SRB 48 h growth assay, Leukemia CCRF-CEM; assay type: cell-based, human
[1] = system: six CNS cancer cell line (SF-268, SF-295, SF-539, SNB-19, SNB-75 and U251); assay: in vitro anticancer activity, CNS panel; assay type: cell-based; details: Homo sapiens; six CNS cancer cell lines, exposure at least 48 h; read-out: GI50, range over panel
OVCAR-5 = assay: SRB 48 h growth assay, Ovarian OVCAR-5; assay type: cell-based, human; details: OVCAR-5, Ovarian
UACC-62 = assay: SRB 48 h growth assay, Melanoma UACC-62; assay type: cell-based, human; details: UACC-62, Melanoma
PC-3 = assay: SRB 48 h growth assay, Prostate PC-3; assay type: cell-based, human; details: PC-3, Prostate
MDA-MB-435 = assay: SRB 48 h growth assay, Melanoma MDA-MB-435; assay type: cell-based, human; details: MDA-MB-435, Melanoma
A549/ATCC = assay: SRB 48 h growth assay, Non-small Cell Lung A549/ATCC; assay type: cell-based, human
DU-145 = assay: SRB 48 h growth assay, Prostate DU-145; assay type: cell-based, human; details: DU-145, Prostate
[2] = system: six leukemia cancer cell lines (CCRF-CEM, HL-60, K-562, MOLT-4, SR and RPMI-8226); assay: in vitro anticancer activity, leukemia panel; assay type: cell-based; details: Homo sapiens, exposure at least 48 h, read-out: GI50, range over panel
A498 = assay: SRB 48 h growth assay, Renal A498; assay type: cell-based, human
HCT-116 = assay: SRB 48 h growth assay, Colon HCT-116; assay type: cell-based, human; details: Homo sapiens, HCT-116, Colon
SK-MEL-2 = assay: SRB 48 h growth assay, Melanoma SK-MEL-2; assay type: cell-based, human; details: SK-MEL-2, Melanoma
SNB-75 = assay: SRB 48 h growth assay, CNS SNB-75; assay type: cell-based, human; details: SNB-75, CNS
NCI-H23 = assay: SRB 48 h growth assay, Non-small Cell Lung NCI-H23; assay type: cell-based, human
CAKI-1 = assay: SRB 48 h growth assay, Renal CAKI-1; assay type: cell-based, human; details: CAKI-1, Renal
OVCAR-3 = assay: SRB 48 h growth assay, Ovarian OVCAR-3; assay type: cell-based, human; details: Homo sapiens, OVCAR-3, Ovarian
U251 = assay: SRB 48 h growth assay, CNS U251; assay type: cell-based, human
[3] = system: two prostate cancer cell line (PC-3, DU-145); assay: in vitro anticancer activity, prostate panel; assay type: cell-based; details: Homo sapiens; two prostate cancer cell lines, exposure at least 48 h; read-out: GI50, range over panel
HOP-92 = assay: SRB 48 h growth assay, Non-small Cell Lung HOP-92; assay type: cell-based, human; details: HOP-92, Non-small Cell Lung
HCC-2998 = assay: SRB 48 h growth assay, Colon HCC-2998; assay type: cell-based, human; details: HCC-2998, Colon
ACHN = assay: SRB 48 h growth assay, Renal ACHN; assay type: cell-based, human
UACC-257 = assay: SRB 48 h growth assay, Melanoma UACC-257; assay type: cell-based, human; details: Homo sapiens, UACC-257, Melanoma
[4] = system: six breast cancer cell line (MCF-7, MDA-MB-231/ATCC, HS 578T, TD-47D, MDA-MB-468 and BT-549); assay: in vitro anticancer activity, breast panel; assay type: cell-based; details: Homo sapiens; six breast cancer cell lines, exposure at least 48 h; read-out: GI50, range over panel
MALME-3M = assay: SRB 48 h growth assay, Melanoma MALME-3M; assay type: cell-based, human
NCI/ADR-RES = assay: SRB 48 h growth assay, Ovarian NCI/ADR-RES; assay type: cell-based, human
NCI-H226 = assay: SRB 48 h growth assay, Non-small Cell Lung NCI-H226; assay type: cell-based, human; details: Homo sapiens
[5] = Homo sapiens, read-out: Growth Inhibition GI50
[6] = Homo sapiens, read-out: Log10 GI50 (converted)
[7] = Homo sapiens, read-out: Log10 LC50 (converted)
[8] = read-out: Growth Inhibition GI50
[9] = read-out: Log10 GI50 (converted)

C#Cc1ccc(-n2c(/C=C/c3ccc4ccccc4c3)nc3ncccc3c2=O)cc1 [4s, (E)-3-(4-Ethynylphenyl)-2-(2-(naphthalen-2-yl)vinyl)pyrido[2,3-d]pyrimidin-4(3H)-one]
Log10 TGI50 (CCRF-CEM): >−4.00
CC50 (CCRF-CEM; Homo sapiens, CCKF-CEM, read-out: Log10 LC50 (converted)): > 100 µM
GI50 (CCRF-CEM; [5]): 1.53 µM
GI50 (CCRF-CEM; [6]): 1.51 µM
GI50 [1]: 0.2 to 0.72 µM
GI50 (OVCAR-5; [5]): 6.88 µM
GI50 (OVCAR-5; [6]): 6.92 µM
CC50 (OVCAR-5; [7]): > 100 µM
Log10 TGI50 (OVCAR-5): >−4.00
GI50 (UACC-62; [5]): 2.49 µM
GI50 (UACC-62; [6]): 2.51 µM
CC50 (UACC-62; [7]): > 100 µM
Log10 TGI50 (UACC-62): >−4.00
GI50 (PC-3; [5]): 2.35 µM
GI50 (PC-3; [6]): 2.34 µM
CC50 (PC-3; [7]): > 100 µM
Log10 TGI50 (PC-3): >−4.00
GI50 (MDA-MB-435; [5]): 2.06 µM
GI50 (MDA-MB-435; [6]): 2.04 µM
CC50 (MDA-MB-435; [7]): > 100 µM
Log10 TGI50 (MDA-MB-435): >−4.00
Log10 TGI50 (A549/ATCC): >−4.00
GI50 (A549/ATCC; [5]): 2.73 µM
GI50 (A549/ATCC; [6]): 2.75 µM
CC50 (A549/ATCC; [7]): > 100 µM
Log10 TGI50 (DU-145): >−4.00
GI50 (DU-145; [5]): 7.45 µM
GI50 (DU-145; [6]): 7.41 µM
CC50 (DU-145; [7]): > 100 µM
GI50 [2]: 0.26 to 0.45 µM
Log10 TGI50 (A498): −5.23
GI50 (A498; [5]): 1.69 µM
GI50 (A498; [6]): 1.7 µM
CC50 (A498; [7]): 5.89 µM
GI50 (HCT-116; [8]): 2.22 µM
GI50 (HCT-116; [9]): 2.24 µM
GI50 (SK-MEL-2; [5]): 2.41 µM
GI50 (SK-MEL-2; [6]): 2.4 µM
CC50 (SK-MEL-2; [7]): 6.17 µM
Log10 TGI50 (SK-MEL-2): −5.21
GI50 (SNB-75; [5]): 3.69 µM
GI50 (SNB-75; [6]): 2.95 µM
CC50 (SNB-75; [7]): > 100 µM
Log10 TGI50 (SNB-75): >−4.00
Log10 TGI50 (NCI-H23): >−4.00
GI50 (NCI-H23; [5]): 6.39 µM
GI50 (NCI-H23; [6]): 6.46 µM
LC50 (NCI-H23; [7]): > 100 µM
Log10 TGI50 (CAKI-1): >−4.31
GI50 (CAKI-1; [5]): 2.98 µM
GI50 (CAKI-1; [6]): 2.95 µM
CC50 (CAKI-1; [7]): > 100 µM
GI50 (OVCAR-3; [8]): 2.04 µM
GI50 (OVCAR-3; [9]): 2.04 µM
Log10 TGI50 (U251): >−4.00
GI50 (U251; Homo sapiens, U-251, read-out: Growth Inhibition GI50): 3.69 µM
GI50 (U251; Homo sapiens, U-251, read-out: Log10 GI50 (converted)): 3.72 µM
CC50 (U251; Homo sapiens, U-251, read-out: Log10 LC50 (converted)): > 100 µM
GI50 [3]: 0.28 to 0.34 µM
Log10 TGI50 (HOP-92): −5.16
GI50 (HOP-92; [5]): 1.63 µM
GI50 (HOP-92; [6]): 1.62 µM
CC50 (HOP-92; [7]): 6.92 µM
Log10 TGI50 (HCC-2998): −5.30
GI50 (HCC-2998; [5]): 2.32 µM
GI50 (HCC-2998; [6]): 2.29 µM
CC50 (HCC-2998; [7]): 5.01 µM
Log10 TGI50 (ACHN): >−4.00
GI50 (ACHN; [5]): 2.57 µM
GI50 (ACHN; [6]): 2.57 µM
CC50 (ACHN; [7]): > 100 µM
GI50 (UACC-257; [8]): 2.11 µM
GI50 (UACC-257; [9]): 2.09 µM
GI50 [4]: 0.23 to 0.35 µM
Log10 TGI50 (MALME-3M): >−4.00
GI50 (MALME-3M; [5]): 4.97 µM
GI50 (MALME-3M; [6]): 6.31 µM
CC50 (MALME-3M; [7]): > 100 µM
Log10 TGI50 (NCI/ADR-RES): >−4.00
GI50 (NCI/ADR-RES; [5]): 3.29 µM
GI50 (NCI/ADR-RES; [6]): 3.31 µM
CC50 (NCI/ADR-RES; [7]): > 100 µM
GI50 (NCI-H226; [8]): 2.33 µM
GI50 (NCI-H226; [9]): 2.34 µM
